In patent publication US20250163062A1, “WNT PATHWAY INHIBITOR COMPOUNDS” (ADLAI NORTYE BIOPHARMA CO., LTD., priority 2022, published 2025):
Like-named read-outs stand apart in the source and are kept apart here.

Tests used:
Type in all cases: cell-based
[1] = system: Colo205-LUC-TCF/LEF reporter gene; assay: Colo205-LUC-TCF/LEF M1 reporter cell line luciferase inhibition; details: 4 h, 4 hours incubation, firefly luciferase signal
Experimental: Colo205 cell line (Cell Bank of Chinese Academy of Sciences, Cat #TCHul02) was purchased from the Cell Bank of Chinese Academy of Sciences. After expansion and subculture, during the exponential growth phase, luciferase reporter plasmid (Promega) driven by TCF/LEF transcription factor was transfected by lipo3000 liposome transfection. The plasmid carries a resistance gene for resistance screening. Transfection was carried out in 10 cm culture dishes using conventional complete medium without resistance. After 2 days, the medium with resistance was replaced, and the culture was continued. After that, the medium with resistance was replaced every 2 days, and the suspended cells were discarded. The original medium was centrifuged to remove cells and debris and retained as an adaptive medium. When the cells covered the culture dish, the cells were digested, counted, and passaged in a 96-well plate, so that the average number of cells contained in each well was 1.5/well, and the adaptive medium was used for passage. The rest of the cells were frozen. After passage, culture for 4 hours to allow the cells to adhere to the wall, and then observe the number of cells in each well under a microscope. Wells with only 1 cell per well were labeled as monoclonal wells. Afterwards, normal culture was performed, and the culture medium was replaced every 2 days, and observed. There are wells where the monoclonal cells continue to grow in the early stage, and they are labeled twice, and can be replaced with normal medium with resistance. When a monoclonal well was overgrown with a 96-well plate, it is digested and passaged to a 24-well culture plate. After the 24-well plate is overgrown, it is passaged to a 96-well plate and a 6-well plate. The cells in a 96-well plate are at least 6 wells, of which 3 wells were added with known Wnt inhibitors, and the other 3 wells were not treated. After 24 hours, the cells in the 96-well plate were added with a fluorescence detection reagent to detect the fluorescence intensity. Cell lines with fluorescent expression when not treated and decreased fluorescent light after inhibition were selected and further cultured. The Colo205-LUC-TCF/LEF-M1 cell line is one of the cell lines screened above. Its growth curve, cell shape, and cell growth state are similar to those of the original Colo205 cells, and the ratio of the fluorescent signals of the inhibitor-treated and untreated cells is the largest among all cell lines, and the ratio can reach 4-5 times when inhibited at 4 hours, which was completely suitable for the screening of Wnt inhibitors in the later stage.
The Colo205-LUC-TCF/LEF M1 cell line is a reporter tool cell stably transfected with the pGL4.49-LUC2-TCF/LEF vector. The β-catenin Wnt pathway is continuously activated. After adding the inhibitor, the Wnt pathway is inhibited. The expression of firefly luciferase regulated by the TCF/LEF cis-element decreased, and after adding the detection substrate, the detected light signal decreased accordingly, so as to detect the inhibitory effect of the compound.
To a 96-well cell culture plate, add 100 uL of the compound with a maximum concentration of 20 uM to each well, and make a 3-fold serial dilution of the compound concentration. Then 10,000 colo205 cells stably transfected with the reporter gene and 100 uL medium were inoculated into each well, and corresponding positive and negative control wells were made at the same time. Put the cells in a 5% CO2 incubator and incubate at 37° C. for 4 hours. After 4 hours, remove the culture medium, add 100 μL of reagent (Promega) containing the corresponding firefly luciferase substrate to each well, and measure the activity of luciferase reporter gene. Luminescence intensity was read with SpectraMax in full wavelength mode. […]

H929 = assay: Proliferation inhibition test, Wnt mutant cell line H929; details: H929, 96 h culture with compound, read-out: Antiproliferation IC50 H929
Source text: (§1) The cell lines used in the experiment are Colo205, H929, HepG2, and DU4475, which have sustained activation of the Wnt pathway and whose proliferation is Wnt pathway-dependent. On the other hand, RKO cell line, in which normally the Wnt pathway is not activated and whose proliferation is not Wnt pathway-dependent, was used as a control cell line. This was done to determine whether the inhibitory effect of the compound of the present disclosure on Wnt-dependent proliferation is due to other nonspecific toxicity.
(§2) Colo205, H929, DU4475, HepG2 and RKO cell lines cultured in their respective culture media were treated in the logarithmic growth phase, and the cells were collected and prepared into a uniform cell suspension of known concentration, and then added to a 96-well cell culture plate so that each well contained 1000-4000 cells. Place in a 5% CO2 cell culture incubator and culture at 37° C. for 20-24 h. On the second day, add the completely dissolved, 3-fold gradient dilution compound to each cell culture well to make the final maximum concentration in the cell culture well 10 uM, and continue to culture for 96 h. This test uses Promega's cell activity detection test for detection. The more the cells proliferate, the stronger the final signal intensity. The detection instrument is SpectraMax, full wavelength mode. The wells with only DMSO added were used as positive control wells, and the wells without cells inoculated were used as negative control wells.

RKO = assay: Proliferation inhibition test, non-Wnt mutant control cell line RKO; details: RKO (Wnt pathway not activated, control), 96 h culture, maximum concentration 10 uM, read-out: Antiproliferation IC50 RKO
Source text: as §1, §2

DU4475 = assay: Proliferation inhibition test, Wnt mutant cell line DU4475; details: DU4475, 96 h culture with compound, read-out: Antiproliferation IC50 DU4475
Source text: as §1, §2

HepG2 = assay: Proliferation inhibition test, Wnt mutant cell line HepG2; details: HepG2, 96 h culture with compound, read-out: Antiproliferation IC50 HepG2
Source text: as §1, §2

Colo205 = assay: Proliferation inhibition test, Wnt mutant cell line Colo205; details: Colo205, 96 h culture with compound, read-out: Antiproliferation IC50 Colo205
Source text: as §1, §2

| SMILES | IC50 [1] [nM] | IC50 (H929; Homo sapiens, NCI-H929, 96 h) [nM] | IC50 (HepG2; Homo sapiens, HepG2, 96 h) [nM] | IC50 (Colo205; Homo sapiens, COLO 205, 96 h) [nM] | IC50 (H929) [nM] | IC50 (HepG2) [nM] | IC50 (Colo205) [nM] | IC50 (RKO; Homo sapiens) [nM] | IC50 (DU4475; Homo sapiens, DU-4475, 96 h) [nM] | IC50 (RKO) [nM] | IC50 (DU4475) [nM] |
| --- | --- | --- | --- | --- | --- | --- | --- | --- | --- | --- | --- |
| [2H]C([2H])([2H])N1c2nc(NCc3ccc(Oc4cnc(C(F)(F)F)nc4C4CC4)nc3)nc3c2N(CCC3)C(=O)[C@]1(C)CO [Compound 10, (S)-2-(((6-((4-cyclopropyl-2-(trifluoromethyl)pyrimidin-5-yl)oxy)pyridin-3-yl)methyl)amino)-5-(hydroxymethyl)-5-methyl-4-(methyl-d3)-4,5,9,10-tetrahydro-6H,8H-pyrido[3,2,1-de]pteridin-6-one] | 3.89 | 18 | 3.54 | 2.34 |  |  |  | > 10000 | < 0.5 |  |  |
| [2H]C([2H])([2H])N1c2nc(NCc3ccc(Oc4ccc(C(F)(F)F)nc4Br)nc3)nc3c2N(CCC3)C(=O)[C@]1(C)CO [Compound 12, (S)-2-(((6-((2-bromo-6-(trifluoromethyl)pyridin-3-yl)oxy)pyridin-3-yl)methyl)amino)-5-(hydroxymethyl)-5-methyl-4-(methyl-d3)-4,5,9,10-tetrahydro-6H,8H-pyrid o[3,2,1-de]pteridin-6-one] | 9.09 | 31.3 | 12.1 | 6.52 |  |  |  | > 10000 | 0.82 |  |  |
| CN1c2nc(NCc3ccc(Oc4ccc(C(F)(F)F)nc4N4CCCC4)nc3)nc3c2N(CCC3)C(=O)[C@]1(C)CO [Compound 13, (S)-5-(Hydroxymethyl)-4,5-dimethyl-2-(((6-((2-(pyrrolidin-1-yl)-6-(trifluoromethyl)pyridin-3-yl)oxy)pyridin-3-yl)methyl)amino)-4,5,9,10-tetrahydro-6H,8H-pyrido[3,2,1-de]pteridin-6-one] | 6.86 | 54 | 19.1 | 11.5 |  |  |  | > 10000 | 1.58 |  |  |
| CNc1nc(C(F)(F)F)ccc1Oc1ccc(CNc2nc3c4c(n2)N(C)[C@@](C)(CO)C(=O)N4CCC3)cn1 [Compound 16, (S)-5-(Hydroxymethyl)-4,5-dimethyl-2-(((6-((2-(methylamino)-6-(trifluoromethyl)pyridin-3-yl)oxy)pyridin-3-yl)methyl)amino)-4,5,9,10-tetrahydro-6H,8H-pyrido[3,2,1-de]pteridin-6-one] | 21.5 | 103 | 1.13 | < 0.1 |  |  |  | > 10000 | 1.2 |  |  |
| CN1c2nc(NCc3ccc(Oc4ccc(C(F)(F)F)nc4CC#N)nc3)nc3c2N(CCC3)C(=O)[C@@H]1CO [Compound 17, (S)-2-(3-((5-(((5-(Hydroxymethyl)-4-methyl-6-carbonyl-5,6,9,10-tetrahydro-4H,8H-pyrido[3,2,1-de]pteridin-2-yl)amino)methyl)pyridin-2-yl)oxy)-6-(trifluoromethyl)pyridin-2-yl)acetonitrile] | 264 | 599 | 879 | 179 |  |  |  | > 10000 | 42.9 |  |  |
| [2H]C([2H])([2H])N1c2nc(NCc3ccc(Oc4ccc(C(F)(F)F)nc4F)nc3)nc3c2N(CCC3)C(=O)[C@]1(C)CO [Compound 18, (S)-2-(((6-((2-fluoro-6-(trifluoromethyl)pyridin-3-yl)oxy)pyridin-3-yl)methyl)amino)-5-(hydroxymethyl)-5-methyl-4-(methyl-d3)-4,5,9,10-tetrahydro-6H,8H-pyrido[3,2,1-de]pteridin-6-one] | 29.9 | 78.8 | 22.1 | 7.43 |  |  |  | > 10000 | 6.72 |  |  |
| Cc1nc(C(F)(F)F)ncc1Oc1ccc(CNc2nc3c4c(n2)N(C)[C@@](C)(CO)C(=O)N4CCC3)cn1 [Compound 19] | 34.8 | 58.3 | 31.1 | 26.6 |  |  |  | > 10000 | 14.8 |  |  |

The next lines start with results.

| IC50 [1] [nM] | IC50 (H929; Homo sapiens, NCI-H929, 96 h) [nM] | IC50 (HepG2; Homo sapiens, HepG2, 96 h) [nM] | IC50 (Colo205; Homo sapiens, COLO 205, 96 h) [nM] | IC50 (H929) [nM] | IC50 (HepG2) [nM] | IC50 (Colo205) [nM] | SMILES | IC50 (RKO; Homo sapiens) [nM] | IC50 (DU4475; Homo sapiens, DU-4475, 96 h) [nM] | IC50 (RKO) [nM] | IC50 (DU4475) [nM] |
| --- | --- | --- | --- | --- | --- | --- | --- | --- | --- | --- | --- |
| 1.46 | 52 | 3.22 | < 0.1 |  |  |  | CN(c1nc(C(F)(F)F)ccc1Oc1ccc(CNc2nc3c4c(n2)N(C)[C@@](C)(CO)C(=O)N4CCC3)cn1)C1CC1 [Compound 20] | > 10000 | < 0.1 |  |  |
| 4.94 | 255 | 1.52 | < 0.1 |  |  |  | CN1c2nc(NCc3ccc(Oc4ccc(C(F)(F)F)nc4N4CC(F)(F)C4)nc3)nc3c2N(CCC3)C(=O)[C@]1(C)CO [Compound 21] | > 10000 | 4.83 |  |  |
| 90 |  |  |  | 309 | 224 | 64.3 | Cc1nc(C(F)(F)F)ncc1Oc1ccc(CNc2nc3c4c(n2)N(C)[C@@](C)([C@H](C)O)C(=O)N4CCC3)cn1 [Compound 22] |  |  | > 10000 | 38.6 |
| 64.7 | 192 | 37.5 | 53.7 |  |  |  | Cc1nc(C(F)(F)F)ncc1Oc1ccc(CNc2nc3c4c(n2)N(C)[C@@H]([C@@H](C)O)C(=O)N4CCC3)cn1 [Compound 23] | > 10000 | 16 |  |  |
| 48 | 5.61 | 37 | 46.5 |  |  |  | [2H]C([2H])([2H])N1c2nc(NCc3ccc(Oc4cnc(C(F)(F)F)nc4C)nc3)nc3c2N(CCC3)C(=O)[C@@H]1[C@@H](C)O [Compound 24] | > 10000 | 23.2 |  |  |
| 69.4 | 98 | 68 | 64.5 |  |  |  | Cc1nc(C(F)(F)F)ncc1Oc1ccc(CNc2nc3c4c(n2)N(C)[C@@H]([C@H](C)O)C(=O)N4CCC3)cn1 [Compound 25] | > 10000 | 15.9 |  |  |
| 43.8 | 98.8 | 13.6 | 18.9 |  |  |  | CN1c2nc(NCc3ccc(Oc4ccc(C(F)(F)F)nc4F)nc3)nc3c2N(CCC3)C(=O)[C@@H]1CO [Compound 26] | > 10000 | 12.1 |  |  |
| 30.6 | 90.2 | 38.3 | 22.8 |  |  |  | [2H]C([2H])([2H])N1c2nc(NCc3ccc(Oc4ccc(C(F)(F)F)nc4F)nc3)nc3c2N(CCC3)C(=O)[C@@H]1CO [Compound 27] | > 10000 | 24.6 |  |  |
